System: yeast genes (level of expressed mRNA)
Assay: DNA chip analysis of expressed mRNA of yeast genes after 2 h culture with a toxic chemical substance
Assay type: cell-based, Saccharomyces cerevisiae S288C
Method in brief: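 S. cerevisiae S288C grown at 25° C in YPD; toxicant added at log phase at growth-inhibitory, non-lethal levels for 2 h, untreated cells as control. Poly(A) mRNA reverse-transcribed with Cy3/Cy5-dUTP, hybridized to whole-genome chip at 65° C >12 h; value is fluorescence ratio versus untreated.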

sodium dodecylbenzosulfonate [(17)]
level of expressed mRNA in the presence of chemical substance/in its absence (gene YGL104C): 1.3
level of expressed mRNA in the presence of chemical substance/in its absence (gene YGL126W): 0.9
level of expressed mRNA in the presence of chemical substance/in its absence (gene YGL134W): 0.9
level of expressed mRNA in the presence of chemical substance/in its absence (gene YGL154C): 1.0
The level of expressed mRNA in the presence of chemical substance/absence: YGL183C (gene YGL183C): 1.4
level of expressed mRNA in the presence of chemical substance/in its absence (gene YGL209W): 1.1
The level of expressed mRNA in the presence of chemical substance/absence: YGL223C (gene YGL223C): 0.8
level of expressed mRNA in the presence of chemical substance/in its absence (gene YGL253W): 0.7
The level of expressed mRNA in the presence of chemical substance/absence: YGR038W (gene YGR038W): 1.1
level of expressed mRNA in the presence of chemical substance/in its absence (gene YGR060W): 1.3
The level of expressed mRNA in the presence of chemical substance/absence: YGR139W (gene YGR139W): 1.0
The level of expressed mRNA in the presence of chemical substance/absence: YGR156W (gene YGR156W): 0.8
The level of expressed mRNA in the presence of chemical substance/absence: YGR198W (gene YGR198W): 1.1
The level of expressed mRNA in the presence of chemical substance/absence: YGR210C (gene YGR210C): 1.1
The level of expressed mRNA in the presence of chemical substance/absence: YGR211W (gene YGR211W): 0.5
The level of expressed mRNA in the presence of chemical substance/absence: YGR237C (gene YGR237C): 0.9
The level of expressed mRNA in the presence of chemical substance/absence: YGR243W (gene YGR243W): 2.1
The level of expressed mRNA in the presence of chemical substance/absence: YGR250C (gene YGR250C): 1.3
The level of expressed mRNA in the presence of chemical substance/absence: YGR266W (gene YGR266W): 0.7
The level of expressed mRNA in the presence of chemical substance/absence: YGR277C (gene YGR277C): 1.3
level of expressed mRNA in the presence of chemical substance/in its absence (gene YGR282C): 1.1
The level of expressed mRNA in the presence of chemical substance/absence: YGR293C (gene YGR293C): 0.8
The level of expressed mRNA in the presence of chemical substance/absence: YHL006C (gene YHL006C): 1.1
The level of expressed mRNA in the presence of chemical substance/absence: YHL021C (gene YHL021C): 1.3
The level of expressed mRNA in the presence of chemical substance/absence: YHL037C (gene YHL037C): 0.9
level of expressed mRNA in the presence of chemical substance/in its absence (gene YHR037W): 1.0
The level of expressed mRNA in the presence of chemical substance/absence: YHR083W (gene YHR083W): 0.8
level of expressed mRNA in the presence of chemical substance/in its absence (gene YHR092C): 0.9
The level of expressed mRNA in the presence of chemical substance/absence: YHR095W (gene YHR095W): 0.8
The level of expressed mRNA in the presence of chemical substance/absence: YHR105W (gene YHR105W): 1.0
The level of expressed mRNA in the presence of chemical substance/absence: YHR134W (gene YHR134W): 1.3
level of expressed mRNA in the presence of chemical substance/in its absence (gene YHR137W): 0.8
The level of expressed mRNA in the presence of chemical substance/absence: YHR180W (gene YHR180W): 0.8
The level of expressed mRNA in the presence of chemical substance/absence: YHR181W (gene YHR181W): 0.9
level of expressed mRNA in the presence of chemical substance/in its absence (gene YHR190W): 1.3
level of expressed mRNA in the presence of chemical substance/in its absence (gene YIL033C): 1.0
The level of expressed mRNA in the presence of chemical substance/absence: YIL108W (gene YIL108W): 1.2
The level of expressed mRNA in the presence of chemical substance/absence: YIL127C (gene YIL127C): 0.7
level of expressed mRNA in the presence of chemical substance/in its absence (gene YIL154C): 1.2
The level of expressed mRNA in the presence of chemical substance/absence: YIL165C (gene YIL165C): 1.4
level of expressed mRNA in the presence of chemical substance/in its absence (gene YIL167W): 0.7
level of expressed mRNA in the presence of chemical substance/in its absence (gene YIR035C): 1.1
The level of expressed mRNA in the presence of chemical substance/absence: YJL017W (gene YJL017W): 1.0
The level of expressed mRNA in the presence of chemical substance/absence: YJL032W (gene YJL032W): 1.1
The level of expressed mRNA in the presence of chemical substance/absence: YJL037W (gene YJL037W): 1.3
The level of expressed mRNA in the presence of chemical substance/absence: YJL049W (gene YJL049W): 0.9
level of expressed mRNA in the presence of chemical substance/in its absence (gene YJL088W): 1.4
The level of expressed mRNA in the presence of chemical substance/absence: YJL097W (gene YJL097W): 1.2
level of expressed mRNA in the presence of chemical substance/in its absence (gene YJL132W): 1.3
level of expressed mRNA in the presence of chemical substance/in its absence (gene YJL196C): 0.9
The level of expressed mRNA in the presence of chemical substance/absence: YJR030C (gene YJR030C): 0.7
The level of expressed mRNA in the presence of chemical substance/absence: YJR044C (gene YJR044C): 1.8
level of expressed mRNA in the presence of chemical substance/in its absence (gene YJR142W): 1.2
level of expressed mRNA in the presence of chemical substance/in its absence (gene YJR148W): 1.3
level of expressed mRNA in the presence of chemical substance/in its absence (gene YJR159W): 1.7
The level of expressed mRNA in the presence of chemical substance/absence: YKL051W (gene YKL051W): 1.5
The level of expressed mRNA in the presence of chemical substance/absence: YKL059C (gene YKL059C): 1.1
level of expressed mRNA in the presence of chemical substance/in its absence (gene YKL067W): 1.4
The level of expressed mRNA in the presence of chemical substance/absence: YKL090W (gene YKL090W): 0.7
The level of expressed mRNA in the presence of chemical substance/absence: YKL094W (gene YKL094W): 1.2
The level of expressed mRNA in the presence of chemical substance/absence: YKL097C (gene YKL097C): 1.1
The level of expressed mRNA in the presence of chemical substance/absence: YKL100C (gene YKL100C): 0.7
level of expressed mRNA in the presence of chemical substance/in its absence (gene YKR039W): 0.9
The level of expressed mRNA in the presence of chemical substance/absence: YKR040C (gene YKR040C): 0.7
The level of expressed mRNA in the presence of chemical substance/absence: YLR097C (gene YLR097C): 1.1
level of expressed mRNA in the presence of chemical substance/in its absence (gene YLR142W): 1.9
level of expressed mRNA in the presence of chemical substance/in its absence (gene YLR180W): 0.8
The level of expressed mRNA in the presence of chemical substance/absence: YLR226W (gene YLR226W): 1.1
level of expressed mRNA in the presence of chemical substance/in its absence (gene YLR273C): 1.0
level of expressed mRNA in the presence of chemical substance/in its absence (gene YLR300W): 0.7
level of expressed mRNA in the presence of chemical substance/in its absence (gene YLR307W): 1.1
The level of expressed mRNA in the presence of chemical substance/absence: YLR338W (gene YLR338W): 0.8
The level of expressed mRNA in the presence of chemical substance/absence: YLR339C (gene YLR339C): 0.7
The level of expressed mRNA in the presence of chemical substance/absence: YLR392C (gene YLR392C): 0.8
The level of expressed mRNA in the presence of chemical substance/absence: YLR415C (gene YLR415C): 0.8
The level of expressed mRNA in the presence of chemical substance/absence: YLR427W (gene YLR427W): 1.0
The level of expressed mRNA in the presence of chemical substance/absence: YML013W (gene YML013W): 1.1
The level of expressed mRNA in the presence of chemical substance/absence: YML029W (gene YML029W): 1.2
The level of expressed mRNA in the presence of chemical substance/absence: YML041C (gene YML041C): 1.3
The level of expressed mRNA in the presence of chemical substance/absence: YML079W (gene YML079W): 1.4
level of expressed mRNA in the presence of chemical substance/in its absence (gene YML110C): 1.1
The level of expressed mRNA in the presence of chemical substance/absence: YML118W (gene YML118W): 1.5
The level of expressed mRNA in the presence of chemical substance/absence: YMR068W (gene YMR068W): 1.3
The level of expressed mRNA in the presence of chemical substance/absence: YMR071C (gene YMR071C): 1.2
level of expressed mRNA in the presence of chemical substance/in its absence (gene YMR105C): 1.6
The level of expressed mRNA in the presence of chemical substance/absence: YMR114C (gene YMR114C): 1.0
The level of expressed mRNA in the presence of chemical substance/absence: YMR115W (gene YMR115W): 1.0
The level of expressed mRNA in the presence of chemical substance/absence: YMR160W (gene YMR160W): 0.9
level of expressed mRNA in the presence of chemical substance/in its absence (gene YMR189W): 1.0
The level of expressed mRNA in the presence of chemical substance/absence: YMR258C (gene YMR258C): 1.1
level of expressed mRNA in the presence of chemical substance/in its absence (gene YMR271C): 1.3
level of expressed mRNA in the presence of chemical substance/in its absence (gene YMR272C): 1.3
level of expressed mRNA in the presence of chemical substance/in its absence (gene YMR296C): 0.8
level of expressed mRNA in the presence of chemical substance/in its absence (gene YNL012W): 1.3
The level of expressed mRNA in the presence of chemical substance/absence: YNL026W (gene YNL026W): 1.0
